In the test the test system is upper airway collapsibility. Briefly: pig model of obstructive sleep apnea (OSA): collapse of the upper respiratory tract induced by negative pressure in anaesthetized, spontaneously breathing pigs. The following applies: for Percent pigs without collaps −150 cm H2O, %: −150 cm H2O (column head; title prints −100). The test is classed as in vivo, German Landrace pigs. An excerpt:
The therapeutic potential of the combination of an α2-Adrenoceptor subtype C (alpha-2C) antagonists with a noradrenaline reuptake inhibitor according to the present invention in sleep apnea can be assessed preclinically in a pig model of obstructive sleep apnea (OSA).
Using negative pressure, it is possible to induce collapse and thus obstruction of the upper respiratory tract in anaesthetized, spontaneously breathing pigs (Wirth K. J. et al., Sleep 36(5) (2013) pp. 699-708).
German Landrace pigs are used for the model. The pigs are anaesthetized and tracheotomized. Two tracheal cannulas are inserted into the trachea, one into the rostral part and the other into the caudal part of the trachea. Using a connection piece, the rostral cannula is connected to a tube to the negative pressure device and to the distal tracheal cannula. The distal tracheal cannula is additionally connected to a tube with an open end to atmosphere via a connection piece that served for free tracheal breathing, circumventing the upper airway. By appropriate opening and clamping of those tubes breathing can be switched from nasal breathing to breathing through the caudal tracheal cannula, circumventing the upper airway, and the (isolated) upper airway can be connected to the negative pressure device, causing airflow in the inspiratory direction.
At certain points in time, the collapsibility of the upper respiratory tract is tested by having the pig breathe via the caudal cannula and applying negative pressures of −50, −100 and −150 cm water head (cm H2O) to the upper respiratory tract. This causes the upper respiratory tract to collapse, which manifests itself in an interruption of the airflow and a pressure drop in the tube system. This test is conducted prior to the administration of the test substance and at certain intervals after the administration of the test substance. An appropriately effective test substance can prevent this collapse of the respiratory tract in the inspiratory phase.

[1] abbreviates: intravenous bolus 20 μg/kg then infusion 12.5 μg/kg/h for four hours, time 0 min (time of administration).
Where [2] appears, read: intravenous bolus 20 μg/kg then infusion 12.5 μg/kg/h for four hours, time 10 min.
The mark [3] stands for this setting: intravenous bolus 20 μg/kg then infusion 12.5 μg/kg/h for four hours, time 30 min.
Where [4] appears, read: intravenous bolus 20 μg/kg then infusion 12.5 μg/kg/h for four hours, time 60 min.
The mark [5] stands for this setting: intravenous bolus 20 μg/kg then infusion 12.5 μg/kg/h for four hours, time 120 min.
The mark [6] stands for this setting: intravenous bolus 20 μg/kg then infusion 12.5 μg/kg/h for four hours, time 180 min.
[7] abbreviates: intravenous bolus 20 μg/kg then infusion 12.5 μg/kg/h for four hours, time 240 min.

As to `C[C@@H]1CCCN(C2CCN(c3ncc(C(=O)NCc4ncc(F)cc4F)s3)CC2)C1` [N-[(3,5-difluoropyridin-2-yl)methyl]-2-[(3R)-3-methyl[1,4′-bipiperidin]-1′-yl]-1,3-thiazole-5-carboxamide], the “inhibited upper airway collapsibility at all negative pressures of −50, −100 and −150 cm head (cm H2O) in all pigs” value (0.01 mg/kg intraduodenal) is given as “at no time point”. The “upper airway collapsibility at the negative pressures of −50 and −100 cm head (cm H2O)” value (0.01 mg/kg intraduodenal, 120 min after administration) was “inhibited”. Further, the “upper airway collapsibility at the negative pressure of −50 cm head (cm H2O)” value (0.01 mg/kg intraduodenal, 150 min after administration) is “inhibited”.

As for `CNCC[C@@H](Oc1ccccc1C)c1ccccc1` [atomoxetine], where the note is “intravenous bolus 20 μg/kg then infusion 12.5 μg/kg/h for four hours”, the “inhibited upper airway collapsibility at all negative pressures of −50, −100 and −150 cm head (cm H2O) in all pigs” value was “at no time”. Besides, the “Percent pigs without collaps −50 cm H2O, %” value is 0% under setting [1]; 0% under setting [2]; 0% under setting [3]; 0% under setting [4]; 0% under setting [5]; 0% under setting [6]. In addition, the “Percent pigs without collaps −50 cm H2O, %” value under setting [7] stood at 0%. Also, the “Percent pigs without collaps −100 cm H2O, %” value is, setting by setting: under setting [1], 0%; under setting [2], 0%; under setting [3], 0%; under setting [4], 0%; under setting [5], 0%; under setting [6], 0%. For the same molecule, the “Percent pigs without collaps −100 cm H2O, %” value under setting [7] is recorded as 0%. Moreover, the “Percent pigs without collaps −150 cm H2O, %” value was 0% under setting [1]; 0% under setting [2]; 0% under setting [3]; 0% under setting [4]; 0% under setting [5]; 0% under setting [6]. Besides, the “Percent pigs without collaps −150 cm H2O, %” value under setting [7] is 0%.

The values above are taken from patent US20250049779A1, “COMBINATION OF AN A2-ADRENOCEPTOR SUBTYPE C (ALPHA-2C) ANTAGONIST WITH A NOREPINEPHRINE REUPTAKE INHIBITOR FOR THE TREATMENT OF SLEEP APNEA” (Bayer Aktiengesellschaft, priority 2021, published 2025).
